One compound from patent US12173042B2, “Methods of treating cancers with CT45 targeted therapies” (The University of Chicago, priority 2016, dated 2024) can be followed below.

Test [1] deals with OVCAR5 stably overexpressing CT45. Briefly: Clonogenic survival assay, OVCAR5. Type of test: cell-based, human. As to conditions: CT45 expressing cells treated with carboplatin. On the procedure: Cells were treated with different carboplatin concentrations for 48 hours and 7-9 days after treatment colonies were counted and plotted as a percent of control on a logarithmic scale.
Cells were treated with different carboplatin concentrations for 48-72 hours. 2000 cells per 6-well were then plated for 7-9 days in drug-free medium. Grown colonies were fixed and stained with 1% formaldehyde, 1% methanol and 0.05% Crystal Violet for 20 min. Colony numbers were then counted with the Colony Area ImageJ plugin and plotted as percent of control on a logarithmic scale.

For test [2], the system named is γH2AX and cleaved caspase-3 in CT45-expressing cancer cells. Description: Western blot of γH2AX and cleaved caspase-3. To be noted: day 5. Type of test: cell-based, human. On the procedure: (§1) Cells were treated with 5 μM carboplatin plus 1.5 nM paxlitaxel for 3 days and then incubated an additional 2 days without drug prior to collection on day 5. Both adherent and non-adherent cells were collected in RIPA buffer (25 mM Tris-HCl pH 7.6, 150 mM NaCl, 1% NP-40, 0.5% sodium deoxycholate, 0.1% SDS) supplemented with protease inhibitor cocktail (Thermo Scientific) and phosphatase inhibitor cocktail (Sigma). Lysates were incubated for 30 min on ice before centrifugation (15 min, 14 000 rpm, 4° C.). The quantity of protein was determined by BCA reagent (Pierce). The extracts were analyzed by SDS-PAGE on a 4-20% gradient gel (Bio-Rad).
as §1, with “indicated drugs” for “5 μM carboplatin plus 1.5 nM paxlitaxel”, “media was changed. On indicated” for “incubated an additional 2 days without drug prior to collection on”, “of collection, both” for “5. Both”, “ice, sonicated and cleared by” for “ice before”
A general note: A western blot detects proteins with antibodies after separation by electrophoresis.

Test [3] deals with DNA damage in CT45-expressing cells. Briefly: Comet assay. Type of test: cell-based, human. As to conditions: day 5. The method, then: Cells were treated with carboplatin for 3 days and then incubated an additional 2 days without drug. The comet assay was performed on day 5 as previously described39. Briefly, 2.5e4 cells/condition were resuspended in 70 uL 0.5% low melting point agarose (LMPA) at 37 C and plated on a glass slide precoated with 1% agarose in PBS. Samples were allowed to solidify at 4 C for 20 minutes with a square cover glass. The cover class was gently removed and a second 70 uL layer of 0.5% LMPA was applied and again allowed to solidify. The cover glass was removed and the slides immersed in Comet Lysis solution (2.5M NaCl, 100 mM EDTA, 10 mM Tris, 0.015% Triton X-100, pH 10) for one hour at 4 C and from this point forward protected from light. After lysis, the slides were equilibrated for 20 minutes in Comet Electrophoresis Buffer (0.3N NaOH, 1 mM EDTA, […]) at 4 C, and then run at 25V for 20 minutes. […] At least 100 cells were quantified/sample using the software OpenComet40. […]
Cells were treated with carboplatin for 3 days and then incubated an additional 2 days without drug. […] At least 100 cells were quantified/sample using the software OpenComet. […]

The subject of the next test is OVCAR5-V5-CT45 tumors. Briefly: Subcutaneous tumor growth in nude mice, CT45 expressing tumors. Format: in vivo, athymic nude mice. As to conditions: carboplatin 20 mg/kg tail vein 1 time/week, vs untreated CT45 tumors. On the procedure:
(§2) 5 million OVCAR5-V5 or OVCAR5-V5-CT45 cells suspended in a 1:2 solution of serum-free media to growth-factor reduced matrigel were injected subcutaneously into the right and left flanks respectively, of 8 week old female athymic nude mice. After 5 days, treatment was administered through the tail vein 1 time/week at 20 mg/kg. Sterile water served as the control treatment. Tumor growth was measured every 2-3 days using calipers until the tumor neared 1 cm3 and was measured daily. Once the tumor reached 1 cm3 the mouse was sacrificed. 4 mice were removed from the study early due to ulcerations of the skin. All experiments were approved by the Institutional Animal Care and Use Committee of the University of Chicago.
as §2, with “Five million” for “5 million”, “8 weeks” for “8 week”, “1 cm^3” for “1 cm3”, “skin. […]” for “skin. All experiments were approved by the Institutional Animal Care and Use Committee of the University of Chicago.”

In test [4] the test system is OVCAR5-V5 (control plasmid) tumors. Briefly: Subcutaneous tumor growth in nude mice, control vector tumors. Format: in vivo, athymic nude mice. To be noted: carboplatin 20 mg/kg tail vein 1 time/week, control cell line. The method, then: as §2
as §2, with “Five million” for “5 million”, “8 weeks” for “8 week”, “1 cm^3” for “1 cm3”, “skin. […]” for “skin. All experiments were approved by the Institutional Animal Care and Use Committee of the University of Chicago.”

“Also recorded” adds a separate entry of the source.

Consider `N.N.O=C([O-])C1(C(=O)[O-])CCC1.[Pt+2]` [carboplatin], for which the colony formation result in test [1] is on record as “significantly reduced”. Further, in test [2], the “levels of cleaved caspase-3” value is listed as “increased levels” and the “levels of γH2AX” value was “increased levels”. Also, the “DNA damage (tail moment)” value in test [3] is “higher levels of DNA damage; also recorded: more DNA damage”. For the same compound, in the test on OVCAR5-V5-CT45 tumors, the tumor growth entry is “significantly reduced growth”. Also, the tumor growth entry in test [4] is recorded as “no effect”.
